The values that follow come from publication PMC10816875, “Synthesis, Characterization, Cytotoxicity, Cellular Imaging, Molecular Docking, and ADMET Studies of Piperazine-Linked 1,8-Naphthalimide-Arylsulfonyl Derivatives” (International Journal of Molecular Sciences, 2024).

Like-named read-outs stand apart in the source and are kept apart here.

Holding throughout (format): cell-based
For data set [1], the system named is mouse breast cancer 4T1 cell line. Description: MTT cytotoxicity assay on 4T1 breast cancer cells. Conditions: 24 h. On the procedure: (§1) For the anticancer studies, we established a stable cell culture for mouse breast cancer cell line 4T1 (ATCC: CRL-2539) cultured in the medium composition RPMI-1640 (Gibco; Grand Island, New York, USA), 10% fetal bovine serum (Gibco, Mexico), 4.5 g/L glucose, 1.5 g/L NaHCO3, 1 mM sodium pyruvate (Gibco; Grand Island, New York, NY, USA), and 1% penicillin–streptomycin (10,000 U/mL). We observed typical cell morphology after the IV passage of cells unfrozen from liquid nitrogen. Then, the cells were used for the subsequent anticancer experiment. A non-cancerous fibroblast cell line (3T3/NIH, ATCC: CRL-1658) was employed for the fluorescence imaging assay. The cells were cultured in 90% Dulbecco’s modified Eagle’s medium with 4 mM L-glutamine, 2 mM sodium pyruvate, 1% non-essential amino acid, 1% penicillin/streptomycin/amphotericin, and 10% fetal bovine serum.
A cellular viability assay was employed for the cytotoxicity of SA samples. […] A cell viability reagent (MTT, Sigma-Aldrich, St Louis, MI, USA) containing yellow tetrazolium salt (3-(4,5-dimethylthiazol-2-yl)-2,5-diphenyltetrazolium bromide) can be converted to purple formazan salt to indicate the cell viability. The 4T1 breast cancer cells were cultured at a density of 5.0 × 10^3 cells per well in 96-well plates. The cells were treated with SA samples for 24 h. The control groups were abbreviated as Cont (100% culture medium), representing normal cell culture; PC (20% DMSO and 80% culture medium), representing toxic condition; and NC (0.1% DMSO and 99.9%), representing minimum toxic condition. MTT reagent was added to 96-well plates to measure the cytotoxic effect of the SA compounds on 4T1 cells.
(Tetrazolium dyes change colour on reduction, which living cells bring about.)

The nature of data set [2]: CCK-8 viability of 3T3 fibroblast cells. Conditions: mouse, read-out: % Cell viability against 3T3 fibroblast cell line. On the procedure:
as §1
(§2) A total of 5.0 × 10^4 of 3T3 cells per well in a 96-well plate were co-cultured with the 1.0 μg/mL of SA samples for 72 h. The viability of the 3T3 cells was assayed by using 10% CCK-8 reagent for 60 min to determine the toxicity of the SA samples. Afterwards, the cells were fixed with glutaraldehyde, followed by staining with 0.1 μg/mL of 4′,6-diamidino-2-phenylindole (DAPI) for the imaging of the nuclei. An inverted fluorescent optical microscope (Nikon, Eclipse Ti-S, Japan) was utilized. The fluorescent light source was Nikon Intensilight C-HGFI, and two fluorescent filter cubes (Ex = 340–380 nm, Em = 435–485 nm, corresponding to DAPI, and Ex = 465–495 nm, Em = 512–558 nm, corresponding to SA samples) were used to observe the distribution of SA samples in the cytoplasm. A scientific-grade CCD (Dhyana, model: 400 BSI, Tucsen, Fuzhou, China) was used to record the images. The magnification of the OM was 200×. The original fluorescent images were recorded in greyscale. ImageJ software (an open-source software, NIH Image, version 1.54f, Bethesda, MD, USA) was employed to merge and convert two fluorescent images into visible colors, e.g., blue for cell nuclei and green for SA1–SA7 samples.

The test system of the next data set is 3T3 fibroblast cell line. Description: CCK-8 viability of 3T3 fibroblast cells. Conditions: 1 μg/mL, 72 h. On the procedure:
as §1, §2

The term viability denotes the share of living cells, or the viability signal relative to a control.

Consider `O=C1c2cccc3cccc(c23)C(=O)N1CCN1CCN(S(=O)(=O)c2ccc([N+](=O)[O-])cc2)CC1` [SA3, 2-(2-(4-((4-Nitrophenyl)sulfonyl)piperazin-1-yl)ethyl)-1H-benzo[de]isoquinoline-1,3 (2H)-dione], for which the “cytotoxicity against 4T1 breast cancer cells (in words)” value (“cytotoxicity” below) in data set [1] was “low toxicity”. For the same compound, the viability at 72 h, 1 μg/mL in data set [2] lay in the range of 82 to 95%. For the same compound, in the data set with 3T3 fibroblast cell line, the “% Cell viability against 3T3 fibroblast cell line” value was “relatively high viability”.

For `O=C1c2cccc3cccc(c23)C(=O)N1CCN1CCN(S(=O)(=O)c2ccc(Cl)s2)CC1` [SA4, 2-(2-(4-((5-Chlorothiophen-2-yl)sulfonyl)piperazin-1-yl)ethyl)-1H-benzo[de]isoquinoline-1,3(2H)-dione], the viability at 72 h, 1 μg/mL in data set [2] lay within 82 to 95%.

As to `O=C1c2cccc3cccc(c23)C(=O)N1CCN1CCN(S(=O)(=O)c2ccccc2[N+](=O)[O-])CC1` [SA1, 2-(2-(4-((2-Nitrophenyl)sulfonyl)piperazin-1-yl)ethyl)-1H-benzo[de]isoquinoline-1,3 (2H)-dione], the viability at 72 h, 1 μg/mL in data set [2] (3T3/NIH fibroblast cells (non-cancerous)) fell in the range of 82 to 95%.

`O=C1c2cccc3cccc(c23)C(=O)N1CCN1CCN(S(=O)(=O)c2ccc3ccccc3c2)CC1` [SA2, 2-(2-(4-(Naphthalen-2-ylsulfonyl)piperazin-1-yl)ethyl)-1H-benzo[de]isoquinoline-1,3 (2H)-dione]: in data set [2], the viability at 72 h, 1 μg/mL is 82 to 95%.

For the compound `O=C1c2cccc3cccc(c23)C(=O)N1CCN1CCN(S(=O)(=O)c2cccs2)CC1` [SA5, 2-(2-(4-(Thiophen-2-ylsulfonyl)piperazin-1-yl)ethyl)-1H-benzo[de]isoquinoline-1,3(2H)-dione], the “cytotoxicity” value in data set [1] is recorded as “most potent (cytotoxic) compound”. The compound also returned a viability at 0.7 µM in data set [1] (Mus musculus, 4T1, 0.7 μM) of under 80%. In addition, in data set [2], the viability at 72 h, 1 μg/mL fell in the range of 82 to 95%.

In the case of `N#Cc1ccc(S(=O)(=O)N2CCN(CCN3C(=O)c4cccc5cccc(c45)C3=O)CC2)cc1` [SA7, 4-((4-(2-(1,3-Dioxo-1H-benzo[de]isoquinolin-2(3H)-yl)ethyl)piperazin-1-yl)sulfonyl)benzonitrile], in data set [2], the viability at 72 h, 1 μg/mL lay in the range of 82 to 95%.

Regarding `O=C1c2cccc3cccc(c23)C(=O)N1CCN1CCN(S(=O)(=O)c2cccnc2)CC1` [SA6, 2-(2-(4-(Pyridin-3-ylsulfonyl)piperazin-1-yl)ethyl)-1H-benzo[de]isoquinoline-1,3(2H)-dione], the “cytotoxicity” value in data set [1] was “good anticancer activity”. In addition, the viability at 72 h, 1 μg/mL in data set [2] lay in the range of 82 to 95%.
